molecular target: Factor D (Homo sapiens (Human), UniProt P00746); test: Factor D esterolytic assay; format: biochemical; conditions: Z-Lys-SBzl substrate, 100 mM HEPES, 500 mM NaCl, pH 7.5, 10% DMSO; tested a minimum of three times; read-out: Measured Ki (IC50) Value for Compounds: IC50
Protocol: The IC50 value of a compound (i.e., the concentration of the compound that inhibits 50% of the enzymatic activity) was calculated according to the procedure reported in U.S. Pat. No. 6,653,340 B1, e.g., column 74 (incorporated by reference).
Specifically, the compounds were dissolved in a stock solution of DMSO at 10.0 or 100 mM. A portion of this stock solution was added to assay buffer in a final volume of 50 μL. Controls included buffer alone and enzyme solutions to which DMSO was added. Substrate was added to the reaction wells immediately or after incubation at room temperature. The reaction rates were measured spectrophotometrically by the generation of product at 405 nm for 600 sec. Background absorbance at 690 nm was measured and subtracted from the absorbance at 405 nm for each well.
The reaction rate for enzyme alone was compared to the rate of enzyme in the presence of inhibitor and the percent inhibition was calculated as shown below: […]
An established esterolytic assay for the measurement of Factor D activity and inhibition of Factor D activity was used (Kam, C. M.; McRae, B. J.; Harper, J. W.; Niemann, M. A.; Volanakis, J. E.; Powers, J. C. Human complement proteins D, C2, and B Active site mapping with peptide thioester substrates. J Biol. Chem. 1987, 262, 3444-3451). For this assay Z-Lys-SBzl, 1.29 mM (Kim, S.; Narayana, S. V. L; Volanakis, J. E. Mutational analysis of the substrate binding site of human complement Factor D. Biochemistry. 1994, 33, 14393-14399.) was used as the substrate for Factor D ([…]). Hydrolysis of this compound by Factor D liberated a free sulfhydryl group which is then reacted with 5,5′-dithiobis(2nitrobenzoic acid) producing an intense yellow color (Habeeb, A. F. S. A. Reaction of protein sulfhydryl groups with Ellman's Reagent. Methods in Enzymol. 1976, 25, 457-464.). The assays were performed in 96 well microtiter plates and rates of hydrolysis were monitored at 405 nm on a Biotek Synergy H1 plate reader. Hydrolysis rates were reported as change in mOD/min. The assay was conducted in 100 mM HEPES, 500 mM NaCl, pH 7.5 containing 10% DMSO in a final volume of 50 μL per well.
An IC50, a compound concentration which inhibits 50% of the enzymatic activity, was calculated. Compounds in the examples were tested a minimum of three times.

Sequence of Factor D (P00746 26-253): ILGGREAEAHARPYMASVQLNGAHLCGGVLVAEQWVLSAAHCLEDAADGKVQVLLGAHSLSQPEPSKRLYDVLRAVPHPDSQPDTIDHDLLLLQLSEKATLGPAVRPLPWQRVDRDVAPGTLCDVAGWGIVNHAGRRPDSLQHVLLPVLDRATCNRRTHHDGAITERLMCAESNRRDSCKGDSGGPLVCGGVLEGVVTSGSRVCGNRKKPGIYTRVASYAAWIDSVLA

SMILES	IC50 [µM]
Cc1cccc(OCc2coc3ccc(-c4cccc(CN)c4)cc23)c1CC(=O)O [Compound 108d, 2-(2-((5-(3-(aminomethyl)phenyl)benzofuran-3-yl)methoxy)-6-methylphenyl)acetic acid]	< 1
Cn1nc(COc2ccccc2CC(=O)O)c2cc(-c3cccc(CN)c3)c3occc3c21 [Compound 3021, 2-(2-((5-(3-(aminomethyl)phenyl)-1-methyl-1H-furo[2,3-g]indazol-3-yl)methoxy)phenyl)acetic acid]	< 1
CC(C)n1nc(COc2ccccc2CC(=O)O)c2cc(-c3cccc([C@@H](C)N)c3)ccc21 [Compound 323b, (R)-2-(2-((5-(3-(1-aminoethyl)phenyl)-1-isopropyl-1H-indazol-3-yl)methoxy)phenyl)acetic acid]	< 1
NCc1cccc(-c2cc3c(COc4ccccc4CC(=O)O)cccc3o2)c1 [Compound 282f, 2-(2-((2-(3-(aminomethyl)phenyl)benzofuran-4-yl)methoxy)phenyl)acetic acid]	< 1
NCc1cccc(-c2cc(-c3ccccc3)c3occ(COc4ccccc4CC(=O)O)c3c2)c1 [Compound 135c, 2-(2-((5-(3-(aminomethyl)phenyl)-7-phenylbenzofuran-3-yl)methoxy)phenyl)acetic acid]	< 1
CC(C)(C)OC(=O)Cc1ccccc1OCc1cc2cc(COc3ccccc3CC(=O)O)cc(-c3cccc(CN)c3)c2o1 [Compound 24a, 2-(2-((7-(3-(aminomethyl)phenyl)-2-((2-(2-(tert-butoxy)-2-oxoethyl)phenoxy)methyl)benzofuran-5-yl)methoxy)phenyl)acetic acid]	< 1
NCc1cccc(-c2cc(CN3CCOCC3)c3occ(COc4ccccc4CC(=O)O)c3c2)c1 [Compound 79h, 2-(2-((5-(3-(aminomethyl)phenyl)-7-(morpholinomethyl)benzofuran-3-yl)methoxy)phenyl)acetic acid]	< 1
CCc1oc2ccc(-c3cccc(CN)c3)cc2c1COc1cc(OC)ccc1CC(=O)O [Compound 225e, 2-(2-((5-(3-(aminomethyl)phenyl)-2-ethylbenzofuran-3-yl)methoxy)-4-methoxyphenyl)acetic acid]	< 1
COC[C@H]1CCCN1Cc1cc(-c2cccc(CN)c2)cc2c(COc3ccccc3CC(=O)O)coc12 [Compound 205d, (R)-2-(2-((5-(3-(aminomethyl)phenyl)-7-((2-(methoxymethyl)pyrrolidin-1-yl)methyl)benzofuran-3-yl)methoxy)phenyl)acetic acid]	< 1
Cc1ccc(CC(=O)O)c(OCc2nn(C(C)C)c3ccc(-c4cccc(CN)c4)cc23)c1 [Compound 254c, 2-(2-((5-(3-(aminomethyl)phenyl)-1-isopropyl-1H-indazol-3-yl)methoxy)-4-methylphenyl)acetic acid]	< 1
NCc1cccc(-c2cccc3occ(COc4ccccc4CC(=O)O)c23)c1 [Compound 97h, 2-(2-((4-(3-(aminomethyl)phenyl)benzofuran-3-yl)methoxy)phenyl)acetic acid]	> 10
CC(Oc1ccccc1CC(=O)O)c1coc2ccc(-c3cccc(CN)c3)cc12 (stereo not drawn) [Compound 119d, 2-(2-(1-(5-(3-(aminomethyl)phenyl)benzofuran-3-yl)ethoxy)phenyl)acetic acid]	< 1
CC(C)n1nc(COc2ccccc2CC(=O)O)c2cc(-c3cccc(CN)c3)ccc21 [Compound 182e, 2-(2-((5-(3-(aminomethyl)phenyl)-1-isopropyl-1H-indazol-3-yl)methoxy)phenyl)acetic acid]	< 1
NCc1cccc(-c2cc(N3CCOCC3)c3occ(COc4ccccc4CC(=O)O)c3c2)c1 [Compound 154c, 2-(2-((5-(3-(aminomethyl)phenyl)-7-morpholinobenzofuran-3-yl)methoxy)phenyl)acetic acid]	< 1
NCc1cccc(-c2cc(NC3CCCC3)c3occ(COc4ccccc4CC(=O)O)c3c2)c1 [Compound 188d, 2-(2-((5-(3-(aminomethyl)phenyl)-7-(cyclopentylamino)benzofuran-3-yl)methoxy)phenyl)acetic acid]	< 1
NCc1cccc(-c2ccc3occ(Cc4cccc(CC(=O)O)c4O)c3c2)c1F [Compound 42c, 2-(3-((5-(3-(aminomethyl)-2-fluorophenyl)benzofuran-3-yl)methyl)-2-hydroxyphenyl)acetic acid]	< 1
COc1ccc(CC(=O)O)c(OCc2c(F)oc3ccc(-c4cccc(CN)c4)cc23)c1 [Compound 172f, 2-(2-((5-(3-(aminomethyl)phenyl)-2-fluorobenzofuran-3-yl)methoxy)-4-methoxyphenyl)acetic acid]	< 1
NCc1cccc(-c2cccc3cc(COc4ccccc4CCC(=O)O)oc23)c1 [Compound 35c, 3-(2-((7-(3-(aminomethyl)phenyl)benzofuran-2-yl)methoxy)phenyl)propanoic acid]	> 10
COc1c(CN)cccc1-c1cc(OC)c2occ(COc3ccccc3CC(=O)O)c2c1 [Compound 324d, 2-(2-((5-(3-(aminomethyl)-2-methoxyphenyl)-7-methoxybenzofuran-3-yl)methoxy)phenyl)acetic acid]	< 1
COc1ccc(CC(=O)O)c(OCc2nn(C)c3ccc(-c4ccnc(CN)c4F)cc23)c1 [Compound 316c, 2-(2-((5-(2-(aminomethyl)-3-fluoropyridin-4-yl)-1-methyl-1H-indazol-3-yl)methoxy)-4-methoxyphenyl)acetic acid]	< 1
NCc1cccc(-c2cc(NC[C@@H]3CCCO3)c3occ(COc4ccccc4CC(=O)O)c3c2)c1 [Compound 275d, (S)-2-(2-((5-(3-(aminomethyl)phenyl)-7-(((tetrahydrofuran-2-yl)methyl)amino)benzofuran-3-yl)methoxy)phenyl)acetic acid]	< 1
NCc1cccc(-c2cc3c(COc4ccccc4CC(=O)O)coc3c3ccoc23)c1F [Compound 287b, 2-(2-((5-(3-(aminomethyl)-2-fluorophenyl)benzo[1,2-b:3,4-b′]difuran-3-yl)methoxy)phenyl)acetic acid]	< 1
NCc1cccc(-c2ccc3occ(COc4ccccc4CC(=O)O)c3c2)c1F [Compound 42b, 2-(2-((5-(3-(aminomethyl)-2-fluorophenyl)benzofuran-3-yl)methoxy)phenyl)acetic acid]	< 1
Cc1ccc(CC(=O)O)c(OCc2coc3c2cc(-c2cccc(CN)c2)c2occc23)c1 [Compound 230c, 2-(2-((5-(3-(aminomethyl)phenyl)benzo[1,2-b:3,4-b′]difuran-3-yl)methoxy)-4-methylphenyl)acetic acid]	< 1
NCc1cccc(-c2cc(OC[C@H]3CCCO3)c3occ(COc4ccccc4CC(=O)O)c3c2)c1 [Compound 76i, (R)-2-(2-((5-(3-(aminomethyl)phenyl)-7-((tetrahydrofuran-2-yl)methoxy)benzofuran-3-yl)methoxy)phenyl)acetic acid]	< 1
COc1ccc(CC(=O)O)c(OCc2c(C3CC3)oc3ccc(-c4cccc(CN)c4)cc23)c1 [Compound 247c, 2-(2-((5-(3-(aminomethyl)phenyl)-2-cyclopropylbenzofuran-3-yl)methoxy)-4-methoxyphenyl)acetic acid]	< 1
NCc1cccc(-c2cc(OCCN3CCOCC3)c3occ(COc4ccccc4CC(=O)O)c3c2)c1 [Compound 250f, 2-(2-((5-(3-(aminomethyl)phenyl)-7-(2-morpholinoethoxy)benzofuran-3-yl)methoxy)phenyl)acetic acid]	< 1
NCc1cccc(-c2ccc3onc(COc4ccccc4CC(=O)O)c3c2)c1 [Compound 88e, 2-(2-((5-(3-(aminomethyl)phenyl)benzo[d]isoxazol-3-yl)methoxy)phenyl)acetic acid]	< 1
COc1ccc(CC(=O)O)c(OCc2c(C(O)C(F)(F)F)oc3ccc(-c4cccc(CN)c4)cc23)c1 (stereo not drawn) [Compound 216c, 2-(2-((5-(3-(aminomethyl)phenyl)-2-(2,2,2-trifluoro-1-hydroxyethyl)benzofuran-3-yl)methoxy)-4-methoxyphenyl)acetic acid]	< 1
CN1CCN(Cc2ccc(-c3cc(-c4cccc(CN)c4)cc4c(COc5ccccc5CC(=O)O)coc34)cc2)CC1 [Compound 116d, 2-(2-((5-(3-(aminomethyl)phenyl)-7-(4-((4-methylpiperazin-1-yl)methyl)phenyl)benzofuran-3-yl)methoxy)phenyl)acetic acid]	< 1
